How the values were obtained:
[1] = test system: H9-naïve hESCs; assay: qRT-PCR for naïve-specific transcripts (KLF17, DNMT3L) during naïve maintenance; assay type: cell-based, human; details: in XAV/Gö/Y; KLF17 and DNMT3L
Method: (§1) Defining alternative naïve maintenance media: To define the activity of selected hit compounds during extended naïve culture, naïve hESCs derived from the primed state and maintained in 5i/L/A were dissociated with Accutase (Thermo Fischer Scientific, A1110501) and 1.5×10^5 single cells were seeded in 5i/L/A media on MEF-coated plates. After 24 hours, 5i/L/A media were switched to experimental maintenance conditions to validate hits from the screen. After 4-6 days the cells were split in a 1:2 or 1:3 ratio and further maintained for 4-6 days before analysis by FACS, qRT-PCR, AP staining, and/or RNA-seq. 5i/L/A media in which the MEK inhibitor PD0325901 was replaced with 5 μM AZ628 are represented as alternative 5i/L/A (a5i/L/A). FXGY, AXGY, AXGYU, PXGY, and GXGY media were prepared in serum-free N2B27 media supplemented with 1 μM PD166866, 5 μM AZ628, 5 μM AZ628 and 1 μM UNC0638, 1 μM PD0325901, and 5 μM GDC-0994, respectively, together with 2 μM XAV939, 2 μM Gö6983, and 10 μM Y-27632. During these assays cells were fed with fresh media every second day and cultured in 5% O2, 5% CO2 at 37° C. Detailed information on conditions used for defining alternative naïve maintenance media can be found in Tables 1-6.
(§2) Quantitative reverse transcriptase PCR (qRT-PCR): Total RNA was isolated using the E.Z.N.A. total RNA kit I and cDNA synthesis was performed from total RNA using the high-capacity cDNA reverse transcription kit (Applied Biosystems, 4368814). qRT-PCR was performed using PowerUp SYBR Green Master Mix (Applied Biosystems, A25743) on the StepOnePlus Real-Time PCR System (Applied Biosystems). Gene expression was normalized to RPLP0 and analyzed using the ΔCt method. Error bars represent the standard deviation (SD) of the mean of technical replicates.

[2] = test system: WIBR3 OCT4-ΔPE-GFP+-naïve hESCs; assay: Extended maintenance assay, OCT4-ΔPE-GFP reporter activity (imaging, qRT-PCR); assay type: cell-based, human; details: in the presence of ROCK inhibitor (Y) alone; 2.5 and 5 μM; two passages
Method: as §1, §2
For this purpose, WIBR3 OCT4-ΔPE-GFP+-naïve hESCs that were generated in the absence of reprogramming transgenes were used using the 5i/L/A cocktail. […] Compounds were tested at two different concentrations (2.5 and 5 μM), and cells were maintained for two passages (FIG. 2A).

[3] = test system: H9-naïve hESCs; assay: Extended maintenance assay, flow cytometry for naïve-specific CD75 and SUSD2; assay type: cell-based, human; details: serum-free media supplemented with XGY, 2.5 μM compound
Method: as §1
Flow cytometry: Primed hESCs were single-cell dissociated using TrypLE Express, while Accutase was used for naïve hESCs. Cells were resuspended in fibroblast medium and centrifuged. Cell pellets were washed in 5 mL ice-cold PBS. The cells were then resuspended in […] fresh ice-cold FACS buffer (PBS supplemented with 5% FBS), and incubated with antibodies for 30 minutes on ice in the dark. The following antibodies were used: anti-SUSD2-PE (1:100), anti-CD75-eFluor 660 (1:100), anti-CD90-PE (1:100), anti-ITGA6-FITC (1:100) and EGFR-APC (1:25). Post-incubation the cells were washed once with 1 mL ice-cold PBS, resuspended in fresh 500 μl FACS buffer, and passed through a […] cell strainer into round bottom FACS tubes (Corning, #352235). Flow cytometry was performed using a BD LSRFortessa X-20 and the data were analyzed using the FlowJo software.

[4] = test system: p-ERK1/2; details: stated as known; cited from earlier work

Cn1nccc1Nc1nccc(-c2ccn([C@H](CO)c3ccc(Cl)c(F)c3)c(=O)c2)n1 [GDC-0994, (S)-1-(1-(4-chloro-3-fluorophenyl)-2-hydroxyethyl)-4-(2-((1-methyl-1H-pyrazol-5-yl)amino)pyrimidin-4-yl)pyridin-2(1H)-one]
concentration effective to maintain expression of naïve-specific transcripts (titration) [1]: 5 µM
activity in maintaining OCT4-ΔPE-GFP reporter activity after passaging [2]: showed activity
sustaining CD75/SUSD2-positive cells over multiple passages [3]: robustly sustained
effect on phosphorylation of cellular ERK1/2 [4]: not to alter

From patent US20250382583A1, “ENHANCED METHODS FOR INDUCING AND MAINTAINING NAIVE HUMAN PLURIPOTENT STEM CELLS” (Washington University, priority 2021, published 2025)
